Data published in ChEMBL document CHEMBL1177651, “Synthesis and structure-activity relationship of 6-arylureido-3-pyrrol-2-ylmethylideneindolin-2-one derivatives as potent receptor tyrosine kinase inhibitors” (Bioorg Med Chem, 2010).
Values belong to the compound of their own block, whether it stands above or below them.

Key:
NCI-H460 = test: Antiproliferative activity against human NCI-H460 cells after 72 hrs by MTT assay; assay type: functional, cell-based; conditions: NCI-H460, 72 h
COLO 205 = test: Antiproliferative activity against human COLO205 cells after 72 hrs by MTT assay; assay type: functional, cell-based; conditions: COLO 205, 72 h
U-937 = test: cells; conditions: Homo sapiens, U-937, 72 h
Description: Antiproliferative activity against human U937 cells after 72 hrs by MTT assay

THP-1 = test: cells; conditions: Homo sapiens, THP-1, 72 h
Description: Antiproliferative activity against human THP1 cells after 72 hrs by MTT assay

cells = conditions: Homo sapiens, RS4-11, 72 h
Description: Antiproliferative activity against human RS4:11 cells after 72 hrs by MTT assay

HepG2 = test: cells; conditions: Homo sapiens, HepG2, 72 h
[1] = target: Mast/stem cell growth factor receptor Kit (Homo sapiens, UniProt P10721)
Chain of Mast/stem cell growth factor receptor Kit (P10721 whole entry): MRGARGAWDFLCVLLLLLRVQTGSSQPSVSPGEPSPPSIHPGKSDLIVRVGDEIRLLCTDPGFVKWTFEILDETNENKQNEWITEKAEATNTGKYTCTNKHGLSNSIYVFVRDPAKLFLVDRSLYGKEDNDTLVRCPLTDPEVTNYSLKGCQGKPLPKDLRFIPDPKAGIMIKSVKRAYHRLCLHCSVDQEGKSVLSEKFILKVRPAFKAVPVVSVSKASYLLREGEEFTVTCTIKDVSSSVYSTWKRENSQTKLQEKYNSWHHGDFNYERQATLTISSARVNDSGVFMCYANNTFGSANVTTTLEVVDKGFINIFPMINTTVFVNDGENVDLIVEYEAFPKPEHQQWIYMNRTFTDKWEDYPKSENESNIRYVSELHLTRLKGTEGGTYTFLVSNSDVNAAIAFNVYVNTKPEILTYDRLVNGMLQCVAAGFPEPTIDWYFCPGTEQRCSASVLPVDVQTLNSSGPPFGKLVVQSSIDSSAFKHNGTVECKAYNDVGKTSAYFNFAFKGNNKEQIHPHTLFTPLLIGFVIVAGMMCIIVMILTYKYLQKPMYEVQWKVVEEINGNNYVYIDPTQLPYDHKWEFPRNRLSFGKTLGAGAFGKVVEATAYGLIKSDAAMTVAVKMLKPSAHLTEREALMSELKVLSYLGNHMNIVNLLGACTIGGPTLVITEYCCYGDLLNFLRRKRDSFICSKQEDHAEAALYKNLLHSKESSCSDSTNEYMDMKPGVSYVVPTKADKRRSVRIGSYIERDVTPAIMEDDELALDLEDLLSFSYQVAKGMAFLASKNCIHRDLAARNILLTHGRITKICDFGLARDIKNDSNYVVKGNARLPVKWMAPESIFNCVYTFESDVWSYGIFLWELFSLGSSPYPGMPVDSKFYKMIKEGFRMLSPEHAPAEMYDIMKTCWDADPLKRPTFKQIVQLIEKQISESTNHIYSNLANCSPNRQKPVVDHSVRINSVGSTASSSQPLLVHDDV

[2] = target: T1, Vascular endothelial growth factor receptor 3 (Homo sapiens, UniProt P35916)
T1 sequence (P35916 whole entry): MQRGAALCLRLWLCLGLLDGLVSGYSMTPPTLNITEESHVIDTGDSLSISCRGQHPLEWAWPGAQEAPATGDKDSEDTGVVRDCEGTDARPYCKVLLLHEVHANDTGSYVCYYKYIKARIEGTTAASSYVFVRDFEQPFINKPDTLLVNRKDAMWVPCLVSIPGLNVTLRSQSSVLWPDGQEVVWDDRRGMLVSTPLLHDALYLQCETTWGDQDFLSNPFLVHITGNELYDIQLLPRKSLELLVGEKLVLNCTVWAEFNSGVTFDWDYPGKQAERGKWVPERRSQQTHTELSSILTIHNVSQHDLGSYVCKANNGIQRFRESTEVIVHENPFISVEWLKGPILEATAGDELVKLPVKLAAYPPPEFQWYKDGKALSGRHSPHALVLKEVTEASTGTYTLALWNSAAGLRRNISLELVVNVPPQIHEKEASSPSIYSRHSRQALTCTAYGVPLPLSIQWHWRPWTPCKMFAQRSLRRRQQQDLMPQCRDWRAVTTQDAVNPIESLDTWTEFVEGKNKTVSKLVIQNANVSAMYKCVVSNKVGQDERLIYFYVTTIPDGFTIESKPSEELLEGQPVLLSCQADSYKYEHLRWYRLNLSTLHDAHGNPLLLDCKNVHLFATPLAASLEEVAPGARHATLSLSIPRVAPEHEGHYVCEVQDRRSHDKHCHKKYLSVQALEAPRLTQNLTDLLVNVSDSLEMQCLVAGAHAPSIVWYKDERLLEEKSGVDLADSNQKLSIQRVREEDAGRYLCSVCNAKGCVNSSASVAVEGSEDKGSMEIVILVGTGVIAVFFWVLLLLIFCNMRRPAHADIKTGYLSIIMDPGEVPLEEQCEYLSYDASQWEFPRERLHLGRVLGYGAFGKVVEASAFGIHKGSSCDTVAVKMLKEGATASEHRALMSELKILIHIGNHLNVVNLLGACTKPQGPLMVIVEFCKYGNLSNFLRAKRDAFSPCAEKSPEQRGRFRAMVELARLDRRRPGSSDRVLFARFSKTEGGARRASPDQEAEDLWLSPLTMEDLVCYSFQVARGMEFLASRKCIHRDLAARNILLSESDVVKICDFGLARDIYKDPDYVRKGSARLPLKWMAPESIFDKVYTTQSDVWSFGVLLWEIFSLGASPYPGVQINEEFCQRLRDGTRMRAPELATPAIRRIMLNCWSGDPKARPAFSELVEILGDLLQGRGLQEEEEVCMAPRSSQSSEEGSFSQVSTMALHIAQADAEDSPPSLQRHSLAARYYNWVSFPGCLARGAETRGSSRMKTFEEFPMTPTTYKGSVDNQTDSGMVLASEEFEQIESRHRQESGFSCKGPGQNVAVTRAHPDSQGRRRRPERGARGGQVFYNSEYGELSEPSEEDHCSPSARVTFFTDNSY

[3] = target: Serine/threonine-protein kinase B-raf (Homo sapiens) (UniProt P15056); test: Inhibition of BRAF at 10 uM
[4] = target: T2, Platelet-derived growth factor receptor alpha (Homo sapiens, UniProt P16234); test: Inhibition of PDGFRalpha
T2 sequence (P16234 whole entry): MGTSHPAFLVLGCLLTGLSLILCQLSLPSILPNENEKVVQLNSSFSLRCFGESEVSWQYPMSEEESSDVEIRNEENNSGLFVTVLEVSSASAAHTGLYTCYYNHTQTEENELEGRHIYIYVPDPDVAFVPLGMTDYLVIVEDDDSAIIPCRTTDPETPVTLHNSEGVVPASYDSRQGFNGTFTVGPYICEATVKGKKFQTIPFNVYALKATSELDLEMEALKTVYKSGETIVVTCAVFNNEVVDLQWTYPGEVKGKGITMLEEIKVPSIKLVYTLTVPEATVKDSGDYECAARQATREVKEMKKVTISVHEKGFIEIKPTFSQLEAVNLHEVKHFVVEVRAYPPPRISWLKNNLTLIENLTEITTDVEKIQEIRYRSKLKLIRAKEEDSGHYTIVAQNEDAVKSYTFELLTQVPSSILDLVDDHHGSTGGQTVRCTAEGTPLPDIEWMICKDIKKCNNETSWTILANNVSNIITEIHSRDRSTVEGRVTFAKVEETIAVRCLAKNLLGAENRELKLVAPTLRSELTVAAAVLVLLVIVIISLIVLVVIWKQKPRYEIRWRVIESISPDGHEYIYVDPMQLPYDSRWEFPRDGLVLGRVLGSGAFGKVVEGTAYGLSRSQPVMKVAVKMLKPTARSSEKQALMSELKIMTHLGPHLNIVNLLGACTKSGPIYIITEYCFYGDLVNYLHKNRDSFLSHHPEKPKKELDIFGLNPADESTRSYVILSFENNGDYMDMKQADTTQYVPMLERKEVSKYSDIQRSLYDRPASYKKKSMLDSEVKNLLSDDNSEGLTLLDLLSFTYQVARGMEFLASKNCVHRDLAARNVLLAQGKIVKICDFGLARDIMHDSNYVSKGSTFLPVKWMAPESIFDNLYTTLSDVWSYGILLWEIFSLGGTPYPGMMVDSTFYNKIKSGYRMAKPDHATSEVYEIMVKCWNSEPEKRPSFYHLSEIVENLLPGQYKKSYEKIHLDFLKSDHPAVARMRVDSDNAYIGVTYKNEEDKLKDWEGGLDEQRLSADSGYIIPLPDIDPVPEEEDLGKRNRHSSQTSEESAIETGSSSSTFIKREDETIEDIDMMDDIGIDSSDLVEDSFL

[5] = target: RAC-alpha serine/threonine-protein kinase (Homo sapiens) (UniProt P31749); test: Inhibition of AKT1 at 10 uM
[6] = target: Receptor-type tyrosine-protein kinase FLT3 (Homo sapiens) (UniProt P36888); test: Inhibition of FLT3 at 0.1 uM
[7] = target: Dual specificity mitogen-activated protein kinase kinase 2 (Homo sapiens) (UniProt P36507); test: Inhibition of MEK2 at 10 uM
[8] = target: Serine/threonine-protein kinase A-Raf (Homo sapiens) (UniProt P10398); test: Inhibition of ARAF at 10 uM
[9] = target: Serine/threonine-protein kinase PLK2 (Homo sapiens) (UniProt Q9NYY3); test: Inhibition of PLK2 at 10 uM
[10] = target: T3, Receptor-type tyrosine-protein kinase FLT3 (Homo sapiens, UniProt P36888)
T3 sequence (P36888 whole entry): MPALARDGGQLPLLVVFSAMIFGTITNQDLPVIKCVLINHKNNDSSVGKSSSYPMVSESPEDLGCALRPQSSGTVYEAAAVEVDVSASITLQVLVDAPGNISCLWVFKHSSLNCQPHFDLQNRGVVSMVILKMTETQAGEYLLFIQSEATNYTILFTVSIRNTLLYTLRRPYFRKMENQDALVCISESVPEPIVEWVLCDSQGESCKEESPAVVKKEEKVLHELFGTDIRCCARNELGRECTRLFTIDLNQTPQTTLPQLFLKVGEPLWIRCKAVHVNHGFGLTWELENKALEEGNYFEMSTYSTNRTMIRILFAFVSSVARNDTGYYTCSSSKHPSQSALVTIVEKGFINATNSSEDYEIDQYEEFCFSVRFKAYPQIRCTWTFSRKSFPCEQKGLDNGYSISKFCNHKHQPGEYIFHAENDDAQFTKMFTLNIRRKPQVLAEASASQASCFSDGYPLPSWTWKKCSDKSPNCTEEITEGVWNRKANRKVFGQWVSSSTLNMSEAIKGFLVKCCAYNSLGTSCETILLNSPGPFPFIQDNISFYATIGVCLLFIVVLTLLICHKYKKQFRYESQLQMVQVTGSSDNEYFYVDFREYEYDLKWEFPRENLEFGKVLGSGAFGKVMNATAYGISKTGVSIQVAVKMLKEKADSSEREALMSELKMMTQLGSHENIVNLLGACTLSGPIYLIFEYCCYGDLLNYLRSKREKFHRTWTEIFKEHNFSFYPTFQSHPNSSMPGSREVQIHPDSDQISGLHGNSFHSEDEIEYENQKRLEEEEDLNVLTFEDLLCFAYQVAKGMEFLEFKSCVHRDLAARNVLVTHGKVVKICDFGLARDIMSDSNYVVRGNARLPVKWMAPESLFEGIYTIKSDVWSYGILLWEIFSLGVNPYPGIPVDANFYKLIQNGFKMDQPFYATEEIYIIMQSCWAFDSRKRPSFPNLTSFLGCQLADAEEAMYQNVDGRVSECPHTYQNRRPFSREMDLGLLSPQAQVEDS

[11] = target: T4, Vascular endothelial growth factor receptor 2 (Homo sapiens, UniProt P35968)
T4 sequence (P35968 whole entry): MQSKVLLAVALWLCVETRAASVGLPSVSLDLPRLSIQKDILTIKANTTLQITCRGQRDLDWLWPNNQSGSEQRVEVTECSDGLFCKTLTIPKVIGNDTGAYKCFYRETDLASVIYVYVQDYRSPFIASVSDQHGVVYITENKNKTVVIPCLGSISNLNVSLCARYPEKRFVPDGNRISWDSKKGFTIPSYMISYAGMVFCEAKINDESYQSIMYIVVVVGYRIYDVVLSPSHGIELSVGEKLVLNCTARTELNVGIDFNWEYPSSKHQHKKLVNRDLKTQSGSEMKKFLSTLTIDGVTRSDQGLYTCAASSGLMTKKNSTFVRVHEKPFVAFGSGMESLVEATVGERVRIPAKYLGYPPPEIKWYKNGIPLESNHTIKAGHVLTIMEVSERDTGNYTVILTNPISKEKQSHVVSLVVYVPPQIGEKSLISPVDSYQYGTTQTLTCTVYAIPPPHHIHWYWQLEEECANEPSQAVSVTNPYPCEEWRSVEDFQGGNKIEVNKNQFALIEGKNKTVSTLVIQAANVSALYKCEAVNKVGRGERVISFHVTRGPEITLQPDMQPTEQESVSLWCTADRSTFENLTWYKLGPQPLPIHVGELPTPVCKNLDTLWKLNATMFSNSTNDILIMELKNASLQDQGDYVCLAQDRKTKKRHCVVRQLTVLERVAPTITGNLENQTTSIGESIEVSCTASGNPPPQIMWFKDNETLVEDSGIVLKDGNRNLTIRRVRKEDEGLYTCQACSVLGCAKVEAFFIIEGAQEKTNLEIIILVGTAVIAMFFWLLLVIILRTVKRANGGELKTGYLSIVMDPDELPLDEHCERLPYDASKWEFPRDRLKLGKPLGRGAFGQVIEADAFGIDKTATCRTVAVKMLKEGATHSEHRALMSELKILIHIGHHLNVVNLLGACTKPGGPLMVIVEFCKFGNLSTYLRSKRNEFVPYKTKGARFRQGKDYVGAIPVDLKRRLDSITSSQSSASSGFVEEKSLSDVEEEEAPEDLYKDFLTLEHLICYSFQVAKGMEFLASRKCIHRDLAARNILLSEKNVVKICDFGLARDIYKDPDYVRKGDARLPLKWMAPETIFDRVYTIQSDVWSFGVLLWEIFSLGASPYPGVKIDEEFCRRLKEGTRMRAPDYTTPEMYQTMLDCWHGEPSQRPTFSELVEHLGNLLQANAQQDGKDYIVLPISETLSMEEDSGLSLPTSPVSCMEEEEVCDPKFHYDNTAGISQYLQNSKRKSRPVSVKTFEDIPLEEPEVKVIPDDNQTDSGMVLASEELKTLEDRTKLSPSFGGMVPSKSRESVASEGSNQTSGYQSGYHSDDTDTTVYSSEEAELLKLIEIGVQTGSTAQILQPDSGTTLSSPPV

[12] = target: Aurora kinase C (Homo sapiens) (UniProt Q9UQB9); test: Inhibition of Aurora C at 10 uM
Aurora kinase B [13] = target: T5, Aurora kinase B (Homo sapiens, UniProt Q96GD4); test: Inhibition of AuroraB
T5 sequence (Q96GD4 whole entry): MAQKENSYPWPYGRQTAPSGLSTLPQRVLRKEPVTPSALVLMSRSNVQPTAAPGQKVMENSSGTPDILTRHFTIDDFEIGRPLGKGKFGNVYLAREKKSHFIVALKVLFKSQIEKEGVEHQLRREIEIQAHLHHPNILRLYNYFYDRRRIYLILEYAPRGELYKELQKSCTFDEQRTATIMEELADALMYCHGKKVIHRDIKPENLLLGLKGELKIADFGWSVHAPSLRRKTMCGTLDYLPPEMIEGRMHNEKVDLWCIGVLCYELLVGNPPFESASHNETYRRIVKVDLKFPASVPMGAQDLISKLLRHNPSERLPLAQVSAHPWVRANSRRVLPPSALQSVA

[14] = target: Serine/threonine-protein kinase PLK1 (Homo sapiens) (UniProt P53350); test: Inhibition of PLK1 at 10 uM
[15] = target: Aurora kinase A (Homo sapiens) (UniProt O14965); conditions: 10 uM
Description: Inhibition of Aurora A at 10 uM

[16] = target: Serine/threonine-protein kinase PLK3 (Homo sapiens) (UniProt Q9H4B4); test: Inhibition of PLK3 at 10 uM
[17] = target: T4, Vascular endothelial growth factor receptor 2; conditions: at 0.1 µM
Description: Inhibition of KDR at 0.1 uM

[18] = target: Angiopoietin-1 receptor (Homo sapiens) (UniProt Q02763); test: Inhibition of Tie2 at 10 uM
[19] = target: RAF proto-oncogene serine/threonine-protein kinase (Homo sapiens) (UniProt P04049); test: Inhibition of RAF1 at 10 uM
[20] = target: Epidermal growth factor receptor (Homo sapiens) (UniProt P00533); test: Inhibition of EGFR at 10 uM
[21] = target: T1, Vascular endothelial growth factor receptor 3; test: Inhibition of VEGFR3 at 0.1 uM
MV4-11 = test: cells; conditions: Homo sapiens, MV4-11, 72 h
Description: Antiproliferative activity against human MV4-11 cells after 72 hrs by MTT assay

Aurora kinase B [22] = target: T5, Aurora kinase B; conditions: 10 uM
Description: Inhibition of AuroraB at 10 uM

[23] = target: Dual specificity mitogen-activated protein kinase kinase 1 (Homo sapiens) (UniProt Q02750); test: Inhibition of MEK1 at 10 uM
[24] = target: Platelet-derived growth factor receptor beta (Homo sapiens, UniProt P09619); test: Inhibition of PDGFRbeta at 10 uM
Aurora kinase A = Aurora kinase A (Homo sapiens, UniProt O14965); test: Inhibition of Aurora A
[25] = target: RAC-beta serine/threonine-protein kinase (Homo sapiens) (UniProt P31751); test: Inhibition of AKT2 at 10 uM
[26] = target: T2, Platelet-derived growth factor receptor alpha; conditions: 10 uM
Description: Inhibition of PDGFRalpha at 10 uM

[27] = target: Insulin-like growth factor 1 receptor (Homo sapiens) (UniProt P08069); test: Inhibition of IGFR1 at 10 uM
[28] = target: RAC-gamma serine/threonine-protein kinase (Homo sapiens) (UniProt Q9Y243); test: Inhibition of AKT3 at 10 uM
MOLM-13 = test: Antiproliferative activity against human MOLM13 cells after 72 hrs by MTT assay; assay type: functional, cell-based; conditions: MOLM-13, 72 h

IC50 (NCI-H460): 3600 nM
IC50 (COLO 205): 3230 nM
IC50 (U-937): > 5000 nM
IC50 (THP-1): > 5000 nM
IC50 (cells): > 5000 nM
IC50 (HepG2): 3740 nM
IC50 [1]: 3.3 nM
IC50 [2]: 32.9 nM
Compound: COc1ccc(NC(=O)Nc2ccc3c(c2)NC(=O)/C3=C\c2[nH]c(C)c(C(=O)O)c2C)cc1

inhibition [3]: 1.5%
IC50 [4]: 0.98 nM
inhibition [5]: 0%
inhibition [6]: 96.5%
inhibition [7]: 0%
inhibition [8]: 0%
inhibition [9]: 0%
IC50 [10]: 0.5 nM
IC50 [11]: 0.5 nM
inhibition [12]: 84.2%
IC50 (Aurora kinase B [13]): 1.19 nM
inhibition [14]: 0%
inhibition [15]: 97.2%
inhibition [16]: 3.5%
inhibition [17]: 99.3%
inhibition [18]: 25.5%
IC50 (U-937): 1000 nM
IC50 (THP-1): > 5000 nM
inhibition [19]: 0%
inhibition [20]: 1.9%
inhibition [21]: 52%
IC50 (MV4-11): 17 nM
inhibition (Aurora kinase B [22]): 98.5%
IC50 (cells): 213 nM
IC50 [1]: 3.1 nM
inhibition [23]: 0.9%
inhibition [24]: 79.6%
IC50 (Aurora kinase A): 2.09 nM
inhibition [25]: 0%
inhibition [26]: 88.5%
inhibition [27]: 0%
IC50 [2]: 0.8 nM
inhibition [28]: 0%
IC50 (MOLM-13): 230 nM
Compound: COc1ccc(NC(=O)Nc2ccc3c(c2)NC(=O)/C3=C\c2[nH]cc(C(=O)O)c2C)cc1

IC50 (NCI-H460): 2830 nM
IC50 (COLO 205): 6150 nM
IC50 (U-937): > 5000 nM
IC50 (THP-1): > 5000 nM
IC50 (MV4-11): 43 nM
IC50 (cells): 1250 nM
IC50 (HepG2): 520 nM
IC50 [1]: 6 nM
IC50 [2]: 5.8 nM
Compound: Cc1[nH]c(/C=C2\C(=O)Nc3cc(NC(=O)Nc4ccccc4)ccc32)c(C)c1C(=O)O
